Assay results reported in patent US20040082551A1, “Novel pyrazoles and their use as p38 kinase inhibitors” (priority 2002, published 2004).

The compounds below were run against T1, human p38 kinase alpha (Homo sapiens, UniProt Q16539) (assay: In vitro p38 kinase inhibition analysis (PHAS-I 32P-ATP or EGFRP 33P-ATP format)). Conditions: Table 2; additional pyrazole compounds, Examples 56-169; read-out: p38α Kinase Inhibition (IC50 in μM).
T1 construct: The coding region of the human p38α cDNA was obtained by PCR-amplification from RNA isolated from the human monocyte cell line THP.1; made in house; host or cells: E. coli DH10B
Format: biochemical
Protocol: The ability of compounds to inhibit human p38 kinase alpha was evaluated using one of two in vitro assay methods. In the first method, activated human p38 kinase alpha phosphorylates a biotinylated substrate, PHAS-I (phosphorylated heat and acid stable protein-insulin inducible), in the presence of gamma ^32P-ATP (^32P-ATP). PHAS-I was biotinylated before the assay, and provided a means of capturing the substrate which was phosphorylated during the assay. p38 Kinase was activated by MKK6. Compounds were tested in 10 fold serial dilutions over the range of 100 μM to 0.001 μM using 1% DMSO. Each concentration of inhibitor was tested in triplicate.
All reactions were carried out in 96 well polypropylene plates. Each reaction well contained 25 mM HEPES pH 7.5, 10 mM magnesium acetate, and 50 μM unlabeled ATP. […] Activated human p38 kinase alpha was used at 1 μg per 50 μl reaction volume, representing a final concentration of 0.3 μM. Gamma ^32P-ATP was used to follow the phosphorylation of PHAS-I. ^32P-ATP has a specific activity of 3000 Ci/mmol, and was used at 1.2 μCi per 50 μl reaction volume. The reaction proceeded either for one hr or overnight at 30° C.
Following incubation, 20 μl of reaction mixture was transferred to a high capacity streptavidin coated filter plate (SAM-streptavidin-matrix, Promega) prewetted with phosphate buffered saline. The transferred reaction mix was allowed to contact the streptavidin membrane of the Promega plate for 1-2 min. […] Filter plates were air dried and 20 μl of scintillant was added. The plates were sealed and counted.
A second assay format was alternatively employed. This assay is based on p38 kinase alpha being induced phosphorylation of EGFRP (epidermal growth factor receptor peptide, a 21 mer) in the presence of ^33P-ATP. Compounds were tested in 10 fold serial dilutions over the range of 100 μM to 0.001 μM in 10% DMSO. Each concentration of inhibitor was tested in triplicate. Compounds were evaluated in 50 μl reaction volumes in the presence of 25 mM HEPES pH 7.5, 10 mM magnesium acetate, 4% glycerol, 0.4% bovine serum albumin, 0.4 mM DTT, 50 μM unlabeled ATP, 25 μg EGFRP (200 μM), and 0.05 uCi gamma ^33P-ATP. Reactions were initiated by addition of 0.09 μg of activated, purified human GST-p38 kinase alpha. Activation was carried out using GST-MKK6 (5:1,p38:MKK6) for one hr at 30° C. in the presence of 50 μM ATP. Following incubation for 60 min at room temperature, the reaction was stopped by addition of 150 μl of AG 1×8 resin in 900 mM sodium formate buffer, pH 3.0 (1 volume resin to 2 volumes buffer). The mixture was mixed three times with pipetting. Afterward, the resin was allowed to settle. A total of 50 μl of clarified solution head volume was transferred from the reaction wells to Microlite-2 plates. 150 μl of Microscint 40 was then added to each well of the Microlite plate, and the plate was sealed, mixed, and counted.

T1 sequence (Q16539 whole entry): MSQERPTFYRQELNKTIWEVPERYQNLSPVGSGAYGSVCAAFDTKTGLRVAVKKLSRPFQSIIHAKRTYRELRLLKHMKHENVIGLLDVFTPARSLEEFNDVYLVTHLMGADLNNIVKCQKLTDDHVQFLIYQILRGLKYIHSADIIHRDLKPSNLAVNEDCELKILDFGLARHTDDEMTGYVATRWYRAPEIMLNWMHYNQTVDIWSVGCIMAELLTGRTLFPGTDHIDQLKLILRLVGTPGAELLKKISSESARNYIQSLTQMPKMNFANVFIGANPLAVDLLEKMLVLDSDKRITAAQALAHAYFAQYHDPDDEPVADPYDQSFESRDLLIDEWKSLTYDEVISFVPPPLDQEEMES

Row | Compound | IC50
1 | O=C(CO)N1CCC(c2[nH]nc(-c3ccc(F)c(F)c3)c2-c2ccncn2)CC1 [Example 60] | 0.753 µM
2 | COCCOCC(=O)N1CCC(c2[nH]nc(-c3ccc(Cl)cc3)c2-c2ccncn2)CC1 [Example 61] | 0.764 µM
3 | O=C([C@H](O)CO)N1CCC(c2[nH]nc(-c3ccc(Cl)cc3)c2-c2ccncn2)CC1 [Example 63] | 0.416 µM
4 | C[C@H](O)[C@@H](O)C(=O)N1CCC(c2[nH]nc(-c3ccc(Cl)cc3)c2-c2ccncn2)CC1 [Example 64] | 0.596 µM
5 | O=C([C@@H](O)CO)N1CCC(c2[nH]nc(-c3ccc(Cl)cc3)c2-c2ccncn2)CC1 [Example 65] | 0.256 µM
6 | CC(=O)OCC(=O)N1CCC(c2[nH]nc(-c3ccc(Cl)c(Cl)c3)c2-c2ccncn2)CC1 [Example 66] | 0.216 µM
7 | O=C(CO)N1CCC(c2[nH]nc(-c3ccc(F)cc3F)c2-c2ccncn2)CC1 [Example 67] | 0.248 µM
8 | O=C(CO)N1CCC(c2[nH]nc(-c3ccc(Cl)c(Cl)c3)c2-c2ccncn2)CC1 [Example 69] | 0.133 µM
9 | O=C(CO)N1CCC(c2[nH]nc(-c3ccc(F)c(Cl)c3)c2-c2ccncn2)CC1 [Example 70] | 0.147 µM
10 | Cc1ccc(-c2n[nH]c(C3CCN(C(=O)CO)CC3)c2-c2ccncn2)cc1Cl [Example 71] | 0.444 µM
11 | COc1cc(-c2n[nH]c(C3CCN(C(=O)CO)CC3)c2-c2ccncn2)ccc1Cl [Example 72] | 4.6 µM
12 | COc1ccc(-c2n[nH]c(C3CCN(C(=O)CO)CC3)c2-c2ccncn2)cc1Cl [Example 73] | 1.2 µM
13 | N#Cc1ccc(-c2n[nH]c(C3CCN(C(=O)CO)CC3)c2-c2ccncn2)cc1 [Example 74] | 7.06 µM
14 | O=C(CO)N1CCC(c2[nH]nc(-c3cc(Cl)cc(Cl)c3)c2-c2ccncn2)CC1 [Example 75] | 3.39 µM
15 | O=C(CO)N1CCC(c2[nH]nc(-c3cc(F)cc(F)c3)c2-c2ccncn2)CC1 [Example 76] | 6.2 µM
16 | COc1cc(Cl)ccc1-c1n[nH]c(C2CCN(C(=O)COC(C)=O)CC2)c1-c1ccncn1 [Example 77] | 22.8 µM
17 | O=C(CO)N1CCC(c2[nH]nc(-c3ccc(Cl)c(C(F)(F)F)c3)c2-c2ccncn2)CC1 [Example 78] | 3.16 µM
18 | COc1cc(Cl)ccc1-c1n[nH]c(C2CCN(C(=O)CO)CC2)c1-c1ccncn1 [Example 79] | 19.3 µM
19 | O=C(CO)N1CCC(c2[nH]nc(-c3cccc(F)c3F)c2-c2ccncn2)CC1 [Example 80] | 2.45 µM
20 | O=C(CO)N1CCC(c2[nH]nc(-c3c(F)cccc3F)c2-c2ccncn2)CC1 [Example 81] | 4.82 µM

Row | Compound | IC50
21 | CCc1ccc(-c2n[nH]c(C3CCN(C(=O)CO)CC3)c2-c2ccncn2)cc1 [Example 82] | 5.85 µM
22 | O=C(CO)N1CCC(c2[nH]nc(-c3cccc(OC(F)(F)F)c3)c2-c2ccncn2)CC1 [Example 83] | 25.7 µM
23 | COc1ccc(-c2n[nH]c(C3CCN(C(=O)CO)CC3)c2-c2ccncn2)cc1 [Example 84] | 1.5 µM
24 | COc1cccc(-c2n[nH]c(C3CCN(C(=O)CO)CC3)c2-c2ccncn2)c1 [Example 85] | 2.1 µM
25 | O=C(CO)N1CCC(c2[nH]nc(-c3cc(F)ccc3F)c2-c2ccncn2)CC1 [Example 87] | 1.75 µM
26 | Cc1c(Cl)cccc1-c1n[nH]c(C2CCN(C(=O)CO)CC2)c1-c1ccncn1 [Example 88] | 0.974 µM
27 | O=C(CO)N1CCC(c2[nH]nc(-c3ccc(Cl)cc3)c2-c2ccnc(O[C@@H]3CCOC3)n2)CC1 [Example 90] | 0.34 µM
28 | O=C(CO)N1CCC(c2[nH]nc(-c3ccc(Cl)cc3)c2-c2ccnc(O[C@H]3CCOC3)n2)CC1 [Example 92] | 0.14 µM
29 | CSc1nccc(-c2c(-c3ccc(Cl)cc3)n[nH]c2C2CCN(C(=O)COC(C)=O)CC2)n1 [Example 93] | 0.297 µM
30 | N#Cc1ccc(Oc2nccc(-c3c(-c4ccc(Cl)cc4)n[nH]c3C3CCN(C(=O)CO)CC3)n2)cc1 [Example 94] | 0.108 µM
31 | CC(=O)OCC(=O)N1CCC(c2[nH]nc(-c3ccc(Cl)cc3)c2-c2ccnc(S(C)(=O)=O)n2)CC1 [Example 95] | 3.31 µM
32 | N#Cc1cccc(Oc2nccc(-c3c(-c4ccc(Cl)cc4)n[nH]c3C3CCN(C(=O)CO)CC3)n2)c1 [Example 96] | 0.0697 µM
33 | CN(C)CCOc1nccc(-c2c(-c3ccc(Cl)cc3)n[nH]c2C2CCN(C(=O)CO)CC2)n1 [Example 97] | 0.377 µM
34 | O=C(CO)N1CCC(c2[nH]nc(-c3ccc(Cl)cc3O)c2-c2ccncn2)CC1 [Example 98] | 1.31 µM
35 | CC(C)CCNc1nccc(-c2c(-c3ccc(Cl)cc3)n[nH]c2C2CCN(C(=O)CO)CC2)n1 [Example 100] | 0.859 µM
36 | O=C(CO)N1CCC(c2[nH]nc(-c3cc(F)cc(C(F)(F)F)c3)c2-c2ccncn2)CC1 [Example 101] | 2.71 µM
37 | O=C(CO)N1CCC(c2[nH]nc(-c3cc(C(F)(F)F)ccc3F)c2-c2ccncn2)CC1 [Example 102] | 0.454 µM
38 | O=C(CO)N1CCC(c2[nH]nc(-c3cccc(C(F)(F)F)c3F)c2-c2ccncn2)CC1 [Example 103] | 5.46 µM
39 | O=C(CO)N1CCC(c2[nH]nc(-c3cc(F)cc(Cl)c3)c2-c2ccncn2)CC1 [Example 104] | 1.1 µM
40 | O=C(CO)N1CCC(c2[nH]nc(-c3cc(Cl)ccc3F)c2-c2ccncn2)CC1 [Example 105] | 0.247 µM

Row | Compound | IC50
41 | O=C(CO)N1CCC(c2[nH]nc(-c3cccc(Cl)c3F)c2-c2ccncn2)CC1 [Example 106] | 0.297 µM
42 | C[C@H](O)C(=O)N1CCC(c2[nH]nc(-c3ccc(Cl)cc3F)c2-c2ccncn2)CC1 [Example 107] | 0.0777 µM
43 | C[C@H](O)C(=O)N1CCC(c2[nH]nc(-c3cc(F)cc(Cl)c3)c2-c2ccncn2)CC1 [Example 108] | 1.62 µM
44 | C[C@H](O)C(=O)N1CCC(c2[nH]nc(-c3cccc(Cl)c3F)c2-c2ccncn2)CC1 [Example 109] | 0.379 µM
45 | C[C@H](O)C(=O)N1CCC(c2[nH]nc(-c3cc(Cl)ccc3F)c2-c2ccncn2)CC1 [Example 110] | 0.255 µM
46 | C[C@H](O)C(=O)N1CCC(c2[nH]nc(-c3cc(C(F)(F)F)ccc3F)c2-c2ccncn2)CC1 [Example 111] | 0.438 µM
47 | C[C@H](O)C(=O)N1CCC(c2[nH]nc(-c3cccc(C(F)(F)F)c3F)c2-c2ccncn2)CC1 [Example 112] | 5.18 µM
48 | C[C@@H](O)C(=O)N1CCC(c2[nH]nc(-c3ccc(Cl)cc3F)c2-c2ccncn2)CC1 [Example 113] | 0.207 µM
49 | C[C@@H](O)C(=O)N1CCC(c2[nH]nc(-c3cccc(Cl)c3F)c2-c2ccncn2)CC1 [Example 114] | 0.411 µM
50 | C[C@H](O)C(=O)N1CCC(c2[nH]nc(-c3cc(F)cc(C(F)(F)F)c3)c2-c2ccncn2)CC1 [Example 115] | 8.48 µM
51 | CN(C)CCOc1nccc(-c2c(-c3cccc(Cl)c3)n[nH]c2C2CCN(C(=O)CO)CC2)n1 [Example 116] | 0.727 µM
52 | CN(C)CCNc1nccc(-c2c(-c3cccc(Cl)c3)n[nH]c2C2CCN(C(=O)CO)CC2)n1 [Example 117] | 0.699 µM
53 | CN(C)CCNc1nccc(-c2c(-c3ccc(F)c(C(F)(F)F)c3)n[nH]c2C2CCN(C(=O)CO)CC2)n1 [Example 118] | 0.814 µM
54 | C[C@H](N[C@H]1CC[C@H](c2[nH]nc(-c3ccc(Cl)cc3)c2-c2ccncn2)CC1)c1ccccc1 [Example 121] | 0.00856 µM
55 | C[C@@H](N[C@H]1CC[C@@H](c2[nH]nc(-c3ccc(Cl)cc3)c2-c2ccncn2)CC1)c1ccccc1 [Example 122] | 0.0449 µM
56 | C[C@@H](N[C@H]1CC[C@H](c2[nH]nc(-c3ccc(Cl)cc3)c2-c2ccncn2)CC1)c1ccccc1 [Example 123] | 0.0427 µM
57 | C[C@@H](N[C@H]1CC[C@H](c2[nH]nc(-c3ccc(Cl)cc3)c2-c2ccncn2)CC1)c1ccccc1 [Example 124] | 0.0452 µM
58 | C[C@@H](N[C@H]1CC[C@@H](c2[nH]nc(-c3ccc(Cl)cc3)c2-c2ccncn2)CC1)c1ccc(F)cc1 [Example 126] | 0.13 µM
59 | C[C@H](N[C@H]1CC[C@H](c2[nH]nc(-c3ccc(Cl)cc3)c2-c2ccncn2)CC1)c1ccc(F)cc1 [Example 128] | 0.00576 µM
60 | CN(C)CC(=O)OCC(=O)N1CCC(c2[nH]nc(-c3ccc(Cl)cc3)c2-c2ccncn2)CC1 [Example 130] | 0.0438 µM
